Measured values from patent US6762189B1, “5-pyrimidinecarboxamide derivatives and the pharmaceutical compositions containing said derivatives” (Dong Wha Pharm. Ind. Co., Ltd., priority 1999, dated 2004).

Columns and labels:
HBV = assay: Inhibition of HBV proliferation in HBV producing cell line HepG 2.2.15 (competitive PCR of culture supernatant); assay type: cell-based, Hepatitis B virus; conditions: Hepatitis B virus, HepG2.2.15, 168 h, HepG 2.2.15, one week, read-out: Inhibitory effect on the HBV proliferation, Inhibition activity on HBV-RT (%); for inhibition at 0.01 µg/mL: 0.01 μg/ml; for inhibition at 0.1 µg/mL: 0.1 μg/ml; for inhibition at 1 µg/mL: 1 μg/ml
Procedure: The following experiment was performed to determine inhibitory effects of compounds of formula on the proliferation of HBV producing cell line.
To test for antiviral effect, replication and proliferation of HBV were measured in HepG 2.2.15, a human liver cancer cell line.
The cell concentration was adjusted to 1×10^5 cells/ml and 1 ml was added to each well of a 24-well cell culture plate, which was then kept in a culture box for 3-4 days at 37° C. under 5% CO2 until cells grew sufficiently, changing culture medium everyday. When the cells matured sufficiently, the test compounds were added to the final concentrations of 0.01, 0.1, and 1 μg/ml. One week after the addition of test compounds, he culture solution was centrifuged at 5,000 rpm for 10 min. 25 μl of supernatant was transferred to a new tube and 5 μl of lysis solution [0.54N NaOH, 0.06% NP40] was added to each tube. After keeping the tube at 37° C. for 1 hr, 30 μl . of neutralizing solution [0.09NHCl, 0.1MTris-HCl, pH7.4] was added as a reaction solution for competitive polymerase chain reaction (PCR).
PCR was performed using genetic sequence of HBV core protein as a matrix. PCR reaction was carried out by adding 1 unit of Taq polymerase enzyme to 25 pmol of each primer, 250 μM dNTP, 5 μl of PCR reaction solution [0.54N NaOH, 0.06% NP40, 0.09N HCl, 0.1M Tris-HCl, pH 7.4].
DNA polymerized by PCR was electrophoresed on Agarose gel and quantitatively analyzed using an image analyzer (Gel Dcc 1000, Bio-Rad) in order to evaluate the effect of compounds of the present invention on the reduction of HBV proliferation.
3TC (lamivudine) was used as a positive control at the same concentrations as those of the test compounds. The percentage of reduction in HBV proliferation was calculated using the group without test compound as a control and the results are represented in Table 4.

HBV polymerase = biological target: T1, HBV polymerase (Hepatitis B virus genotype A2 subtype adw2, UniProt P03159); assay: In vitro reverse transcription activity of HBV polymerase (ELISA-type, DIG/biotin nucleotides); assay type: biochemical; conditions: read-out: Inhibition activity on HBV-RT (%); for inhibition at 0.01 µg/mL: 0.01 μg/ml test compound; for inhibition at 0.1 µg/mL: 0.1 μg/ml test compound; for inhibition at 1 µg/mL: 1 μg/ml test compound
T1 construct: made in house; host or cells: E. coli
Procedure: The following in vitro experiment was performed to determine the effect of the compounds of formula 1 on the activity of HBV polymerase during reverse transcription.
The present inventors submitted application for a patent concerning HBV polymerase genetically expressed in and separated from E. coli, the process of its preparation, and the method to measure the enzyme activities (KR 94-3918, KR 96-33998). In the present experiments HBV polymerase was used which had been expressed in E. coli as stated above.
The method used in the present invention to measure in vitro reverse transcribing activities of HBV polymerase is as follows. Basic principles are the same as for ELISA. Nucleotides with biotin or digoxigenin group attached are included as substrates and anti-DIG antibodies attached to peroxidase enzyme recognize the polymerized substrates.
To the wells coated with streptavidin, 20 μl of HBV polymerase, 20 μl of reaction mixture (10 μM each of DIG-UTP and Biotin-UTP, 46 mM Tris-HCl, 266 mM KCl, 27.5 mM MgCl2, 9.2 mM DTT substrate/primer hybrid), and 20 μl of test compound (added to 1, 0.1, and 0.01 μg/ml) were added and allowed to react a 22° C. for 15 hrs. During this reaction, HBV polymerase catalyzes DNA synthesis and digoxigenin and biotin attached to nucleotides form bonds with streptavidin coated on the bottom of wells. When the reaction was done, each well was washed with 250μl of cleaning buffer (pH 7.0) for 30 seconds, which was repeated five times to remove remaining impurities. 200 μl of anti-DIG-POD antibody was added to each well and allowed to react for 1 hr at 37° C., and the wells were washed with cleaning buffer to remove impurities. 200μl each of ABTS™, a substrate of peroxidase, was then added and allowed to react at room temperature for 30 min. Absorbance was measured at 405 nm using ELISA reader.
The percentage of reduction in HBV polymerase activities for reverse transcription was calculated using the group without test compound as a control and the results are shown in Table 3.

T1 sequence (P03159 whole entry): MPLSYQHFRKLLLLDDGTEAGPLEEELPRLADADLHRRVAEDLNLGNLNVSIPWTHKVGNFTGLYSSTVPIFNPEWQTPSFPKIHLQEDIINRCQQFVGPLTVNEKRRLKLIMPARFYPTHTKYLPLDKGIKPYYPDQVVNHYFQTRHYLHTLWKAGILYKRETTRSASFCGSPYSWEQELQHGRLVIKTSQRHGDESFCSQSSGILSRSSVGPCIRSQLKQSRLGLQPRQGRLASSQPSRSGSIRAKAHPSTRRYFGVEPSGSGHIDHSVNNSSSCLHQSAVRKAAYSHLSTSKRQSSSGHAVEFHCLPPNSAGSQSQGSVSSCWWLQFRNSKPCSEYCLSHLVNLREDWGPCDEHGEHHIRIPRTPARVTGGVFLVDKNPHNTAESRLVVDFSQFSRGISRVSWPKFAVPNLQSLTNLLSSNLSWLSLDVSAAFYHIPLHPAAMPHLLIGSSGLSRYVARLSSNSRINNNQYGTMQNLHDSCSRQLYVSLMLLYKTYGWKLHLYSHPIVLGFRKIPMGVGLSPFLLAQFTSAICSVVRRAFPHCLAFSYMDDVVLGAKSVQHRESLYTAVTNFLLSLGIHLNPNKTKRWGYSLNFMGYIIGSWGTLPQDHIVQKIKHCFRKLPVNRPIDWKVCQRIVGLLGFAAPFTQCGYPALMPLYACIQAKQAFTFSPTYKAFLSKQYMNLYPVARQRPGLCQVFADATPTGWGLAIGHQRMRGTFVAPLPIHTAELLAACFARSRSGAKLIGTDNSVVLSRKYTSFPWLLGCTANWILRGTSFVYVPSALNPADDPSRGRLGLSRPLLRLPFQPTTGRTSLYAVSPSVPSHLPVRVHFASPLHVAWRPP

CSc1ncc(C(=O)N(C)C)c(Nc2ccc3[nH]ncc3c2)n1 [Example 15, N,N-dimethyl-4-(1H-5-indazolylamino)-2-methylthio-5-pyrimidinecarboxamide]
inhibition at 0.01 µg/mL (HBV): 25%
inhibition at 0.1 µg/mL (HBV): 52%
inhibition at 1 µg/mL (HBV): 70%
melting point: 101 to 105 °C
inhibition at 0.01 µg/mL (HBV polymerase): 42%
inhibition at 0.1 µg/mL (HBV polymerase): 61%
inhibition at 1 µg/mL (HBV polymerase): 77%

CSc1ncc(C(=O)NCCN(C)C)c(Nc2ccc3[nH]ncc3c2)n1 [Example 17, N-[2-(dimethylamino)ethyl]-4-(1H-5-indazolylamino)-2-methylthio-5-pyrimidinecarboxamide]
melting point: 111 to 114 °C
inhibition at 0.01 µg/mL (HBV polymerase): 15%
inhibition at 0.1 µg/mL (HBV polymerase): 51%
inhibition at 1 µg/mL (HBV polymerase): 80%

CSc1ncc(C(=O)NN2CCN(C)CC2)c(Nc2ccc3[nH]ncc3c2)n1 [Example 21, 4-(1H-5-indazolylamino)-N-(4-methyl-1-piperazinyl)-2-methylthio-5-pyrimidinecarboxamide]
melting point: 251 to 253 °C
inhibition at 0.01 µg/mL (HBV polymerase): 40%
inhibition at 0.1 µg/mL (HBV polymerase): 54%
inhibition at 1 µg/mL (HBV polymerase): 78%

CSc1ncc(C(=O)NN2CCN(C)CC2)c(Nc2ccc3cn[nH]c3c2)n1 [Example 22, 4-(1H-6-indazolylamino)-N-(4-methyl-1-piperazinyl)2-methylthio-5-pyrimidinecarboxamide]
melting point: 244 to 247 °C
inhibition at 0.01 µg/mL (HBV polymerase): 28%
inhibition at 0.1 µg/mL (HBV polymerase): 46%
inhibition at 1 µg/mL (HBV polymerase): 72%

COC(=O)[C@@H](NC(=O)c1cnc(SC)nc1Nc1ccc2[nH]ncc2c1)[C@@H](C)O [Example 23, 4-(1H-5-indazolylamino)-N-[(1S)-1-(methoxycarbonyl)-(2R)-2-hydroxypropyl]-2-methylthio-5-pyrimidinecarboxamide]
melting point: 227 to 232 °C
inhibition at 0.01 µg/mL (HBV polymerase): 18%
inhibition at 0.1 µg/mL (HBV polymerase): 40%
inhibition at 1 µg/mL (HBV polymerase): 51%

COC(=O)[C@@H](NC(=O)c1cnc(SC)nc1Nc1ccc2cn[nH]c2c1)[C@@H](C)O [Example 24, 4-(1H-6-indazolylamino)-N-[(1S)-1-(methoxycarbonyl)-(2R)-2-hydroxypropyl]-2-methylthio-5-pyrimidinecarboxamide]
melting point: 226 to 228 °C
inhibition at 0.01 µg/mL (HBV polymerase): 50%
inhibition at 0.1 µg/mL (HBV polymerase): 63%
inhibition at 1 µg/mL (HBV polymerase): 82%

CSc1ncc(C(=O)NCc2cccnc2)c(Nc2ccc3[nH]ncc3c2)n1 [Example 25, 4-(1H-5-indazolylamino)-2-methylthio-N-(3-pyridyl)methyl-5-pyrimidinecarboxamide]
inhibition at 0.01 µg/mL (HBV): 40%
inhibition at 0.1 µg/mL (HBV): 65%
inhibition at 1 µg/mL (HBV): 92%
melting point: 268 to 270 °C
inhibition at 0.01 µg/mL (HBV polymerase): 53%
inhibition at 0.1 µg/mL (HBV polymerase): 76%
inhibition at 1 µg/mL (HBV polymerase): 97%

CSc1ncc(C(=O)NCc2cccnc2)c(Nc2ccc3cn[nH]c3c2)n1 [Example 26, 4-(1H-6-indazolylamino)-2-methylthio-N-(3-pyridyl)methyl-5-pyrimidinecarboxamide]
inhibition at 0.01 µg/mL (HBV): 47%
inhibition at 0.1 µg/mL (HBV): 75%
inhibition at 1 µg/mL (HBV): 97%
melting point: 253 to 256 °C
inhibition at 0.01 µg/mL (HBV polymerase): 55%
inhibition at 0.1 µg/mL (HBV polymerase): 79%
inhibition at 1 µg/mL (HBV polymerase): 98%

CSc1ncc(C(=O)NCCc2ccccn2)c(Nc2ccc3[nH]ncc3c2)n1 [Example 27, 4-(1H-5-indazolylamino)-2-methylthio-N-[2-(2-pyridyl)ethyl]-5-pyrimidinecarboxamide]
inhibition at 0.01 µg/mL (HBV): 38%
inhibition at 0.1 µg/mL (HBV): 55%
inhibition at 1 µg/mL (HBV): 84%
melting point: 220 to 223 °C
inhibition at 0.01 µg/mL (HBV polymerase): 48%
inhibition at 0.1 µg/mL (HBV polymerase): 60%
inhibition at 1 µg/mL (HBV polymerase): 88%

CSc1ncc(C(=O)NCCc2ccccn2)c(Nc2ccc3cn[nH]c3c2)n1 [Example 28, 4-(1H-6-indazolylamino)-2-methylthio-N-[2-(2-pyridyl)ethyl]-5-pyrimidinecarboxamide]
inhibition at 0.01 µg/mL (HBV): 44%
inhibition at 0.1 µg/mL (HBV): 68%
inhibition at 1 µg/mL (HBV): 93%
melting point: 230 to 231 °C
inhibition at 0.01 µg/mL (HBV polymerase): 52%
inhibition at 0.1 µg/mL (HBV polymerase): 70%
inhibition at 1 µg/mL (HBV polymerase): 95%

CSc1ncc(C(=O)NCCCn2ccnc2)c(Nc2ccc3cn[nH]c3c2)n1 [Example 30, N-[3-(1H-1-imidazolyl)propyl]-4-(1H-6-indazolylamino)-2-methylthio-5-pyrimidinecarboxamide]
melting point: 230 to 232 °C
inhibition at 0.01 µg/mL (HBV polymerase): 32%
inhibition at 0.1 µg/mL (HBV polymerase): 58%
inhibition at 1 µg/mL (HBV polymerase): 91%

CSc1ncc(C(=O)N2CCN(C)CC2)c(Nc2ccc3[nH]ncc3c2)n1 [Example 31, 4-(1H-5-indazolylamino)-5-[(4-methyl-1-piperazinyl)-carbonyl]-2-methylthiopyrimidine]
melting point: 153 to 155 °C
inhibition at 0.01 µg/mL (HBV polymerase): 43%
inhibition at 0.1 µg/mL (HBV polymerase): 58%
inhibition at 1 µg/mL (HBV polymerase): 82%

CSc1ncc(C(=O)N2CCN(C)CC2)c(Nc2ccc3cn[nH]c3c2)n1 [Example 32, 4-(1H-6-indazolylamino)-5-[(4-methyl-1-piperazinyl)-carbonyl]-2-methylthiopyrimidine]
melting point: 102 to 106 °C
inhibition at 0.01 µg/mL (HBV polymerase): 26%
inhibition at 0.1 µg/mL (HBV polymerase): 40%
inhibition at 1 µg/mL (HBV polymerase): 62%

CSc1ncc(C(=O)N2CCN(CCO)CC2)c(Nc2ccc3[nH]ncc3c2)n1 [Example 33, 5-[[4-(2-hydroxyethyl)-1-piperazinyl]carbonyl]-4-(1H-5-indazolylamino)-2-methylthiopyrimidine]
melting point: 166 to 170 °C
inhibition at 0.01 µg/mL (HBV polymerase): 11%
inhibition at 0.1 µg/mL (HBV polymerase): 32%
inhibition at 1 µg/mL (HBV polymerase): 53%

CSc1ncc(C(=O)N2CCN(CCO)CC2)c(Nc2ccc3cn[nH]c3c2)n1 [Example 34, 5-[[4-(2-hydroxyethyl)-1-piperazinyl]carbonyl]-4-(1H-6-indazolylamino)-2-methylthiopyrimidine]
melting point: 114 to 117 °C
inhibition at 0.01 µg/mL (HBV polymerase): 15%
inhibition at 0.1 µg/mL (HBV polymerase): 43%
inhibition at 1 µg/mL (HBV polymerase): 59%
